Data: US9737622B2, “Compounds modulators of VEGF activity and uses thereof” (ADVANCED ACCELERATOR APPLICATIONS S.A., priority 2009, dated 2017)
“Also recorded” adds a separate entry of the source. Bridge positions count the residues as written; N and C are the ends. Ends that are not written are not given here.

How the values were obtained:
HUVEC cells [1] = assay: Caspase 3 fluorimetric assay in serum-starved HUVEC; assay type: cell-based, human; settings: for effect of VEGF on caspase-3 activity (rescue) when peptide is added: in presence of VEGF, 8 hours
Description: Determination of caspase-3 activity was performed by a fluorometric assay based on the proteolytic cleavage of the AMC-derived substrate N-acetil-DEVD-AMC, which yields a fluorescent product.
HUVEC cells were plated in 6-well dishes at 1×10^5 cells/cm^2. On the next day, cells were treated, in starvation medium (EBM-2, heparin 0.1%, BSA 0.1%), with Pep #3 (25-100 ng/ml) or scrambled Pep RND (100 ng/ml) peptides for 8 h at 37° C. VEGF165 (R & D Systems, Minneapolis, Minn., USA), 25 ng/ml, was used as positive control.
After 8 h the cells were processed with 150 μl of Caspase-3 reaction buffer (HEPES pH 7.5 50 mM, EDTA 0.1 mM, NP-40 0.1%, CHAPS 0.1%, DTT 1 mM) and cell proteins collected after centrifugation at 13000 rpm for 15 min at 4° C. Protein concentrations were determined by Bradford method (Bio-Rad, Hercules, Calif.) and 20 μg of lysates were incubated in 96-well plates with 20 μM N-acetil-DEVD-AMC at 37° C. for 3 h.
Samples were analyzed using a microplate reader (L55 Luminescence Spectometrer Perkin Elmer Instruments) (excitation: 360 nm, emission: 440 nm).
To investigate the biological activity of the designed peptides the authors analyzed the activation of caspase 3 in human primary endothelial (HUVEC) cells serum-deprived by means of a caspase-3 fluorimetric assay. It is well known that VEGF act as survival factor for ECs. […] Experiments were performed on serum starved HUVEC treated with designed peptides in presence or absence of VEGF in order to highlight an antagonist or agonist (VEGF-like) activity respectively. The biological activity of the analyzed compounds is reported as percentage of VEGF rescue (FIG. 1). The decrease of the caspase-3 activity following VEGF incubation is set to 100% rescue.

VEGF receptors = assay: Biological and in vivo assays, summary of angiogenic activity; settings: summary statement
Text: The compounds have application in diagnosis and treatment of pathologies depending on angiogenesis, especially they can be used in therapy of […].

ERK1/2 = assay: Western blot of phospho ERK1/2 in HUVEC; assay type: cell-based, human
Description: Cells were plated in 12-well dishes at 1×10^5 cells/cm^2. On the next day, cells were treated, in starvation medium (EBM-2, heparin 0.1%, BSA 0.1%) with Pep #3 (25-100 ng/ml) or Pep RND (100 ng/ml) peptides for 15 min and 30 min at 37° C. VEGF165 (R & D Systems, Minneapolis, Minn., USA) 25 ng/ml was used as positive control. After treatment, whole cell lysates were obtained by using RIPA lysis buffer (Tris 50 mM pH 7.5, NaCl 150 mM, NP-40 1%, EGTA 1 mM, SDS 0.05%) supplemented with Complete Protease Inhibitors and Phosphate Inhibitors (Pierce Biotechnology, Rockford, Ill.). Cell proteins were then collected after centrifugation and protein content was determined by Bradford method (Bio-Rad, Hercules, Calif.). Proteins were separated by electrophoresis on SDS-polyacrylamide gels and transferred to nitrocellulose membrane (Millipore Corp., Bedford, Mass.) by semi-dry electroblotting (Transblot; Bio-Rad Laboratories, Hercules, Calif.).
The serine-tyrosine-phosphorilated ERK1/2 (polyclonal antibody, Cell Signaling Technology, Inc. Danvers, Mass., USA) and aGAPDH (monoclonal antibody 6C5, Santa Cruz Biotechnology, Inc., Santa Cruz, Calif.) were visualized by specific antibodies, anti-rabbit and anti-mouse horseradish peroxidase-conjugated secondary antibody (Jackson Immunoresearch Laboratories, Inc, Baltimor Pike; Pa., USA) standard chemiluminescence (Pierce Biotechnology, Rockford, Ill.).
VEGF-modulated angiogenesis is largely ERK1/2-dependent, leading to DNA synthesis and cell proliferation. […] The authors therefore investigated whether peptide #3 could also induce ERK and AKT activation like VEGF. […] Scrambled Pep-RND had no effect on ERK1/2 and AKT activation, proving that it is unable to activate intracellular signaling (FIG. 2A).

HUVEC cells [2] = assay: Cell proliferation assay (CyQUANT NF); assay type: cell-based, human
Description: HUVEC cells were plated at density of 1200 cells/well in 96-well poly-D-lysine-coated microplates (Becton Dickinson, Franklin Lakes, N.J. USA). After 24 hours incubation in starvation medium (EBM-2, heparin 0.1%, BSA 0.1%), cells were treated with VEGF165 25 ng/ml (R & D Systems, Minneapolis, Minn., USA), with Pep #3 (10-25-50-100 ng/ml) or Pep RND (100 ng/ml). Cell proliferation was determined by using CyQUANT® NF Cell Proliferation Assay Kit (Molecular Probes, Invitrogen S.R.L., Milano, Italy) at 24, 48 and 72 hour after treatment. CyQUANT® NF assay is based on cellular DNA content measurement via fluorescent dye binding. Because cellular DNA content is highly regulated, it is closely proportional to cell number. Briefly, medium was removed and cells incubated with CyQUANT NF reagent for 1 hour at 37° C. according to the manufacturer's instructions. Plates were then analyzed by using a microplate reader (L55 Luminescence Spectometrer Perkin Elmer Instruments) (excitation: 485 nm, emission: 520 nm).
To evaluate whether peptide #3 induces cellular proliferation, a cell proliferation assay was performed on HUVEC cells treated, in serum deprivation conditions, with pep #3 (10-25-50-100 ng/ml) or Pep RND (100 ng/ml). After 24, 48 and 72 hours of treatment cell proliferation was measured by CyQUANT® NF Cell Proliferation Assay Kit. […] This effect is evident at 24, 48 and 72 hours. […]

AKT = assay: Western blot of phospho AKT in HUVEC; assay type: cell-based, human; settings: serum deprivation, 15 and 30 min, peptide #3 25-100 ng/ml, Pep-RND 100 ng/ml
Description: Cells were plated in 12-well dishes at 1×10^5 cells/cm^2. On the next day, cells were treated, in starvation medium (EBM-2, heparin 0.1%, BSA 0.1%) with Pep #3 (25-100 ng/ml) or Pep RND (100 ng/ml) peptides for 15 min and 30 min at 37° C. VEGF165 (R & D Systems, Minneapolis, Minn., USA) 25 ng/ml was used as positive control. After treatment, whole cell lysates were obtained by using RIPA lysis buffer (Tris 50 mM pH 7.5, NaCl 150 mM, NP-40 1%, EGTA 1 mM, SDS 0.05%) supplemented with Complete Protease Inhibitors and Phosphate Inhibitors (Pierce Biotechnology, Rockford, Ill.). Cell proteins were then collected after centrifugation and protein content was determined by Bradford method (Bio-Rad, Hercules, Calif.). Proteins were separated by electrophoresis on SDS-polyacrylamide gels and transferred to nitrocellulose membrane (Millipore Corp., Bedford, Mass.) by semi-dry electroblotting (Transblot; Bio-Rad Laboratories, Hercules, Calif.). […]

RB protein = assay: Western blot of RB phosphorylation in HUVEC; assay type: cell-based, human; settings: 24 hours, Pep #3 10-100 ng/ml, VEGF165 25 ng/ml, Pep RND 100 ng/ml
Description: FIG. 3—A) HUVEC cells were incubated in starvation medium (EBM-2, 0.1% heparin, 0.1% BSA) alone or in presence of VEGF165 (25 ng/ml) or with indicated concentrations of Pep #3 or Pep RND (100 ng/ml), for 24, 48 and 72 hours at 37° C. in 5% CO2 atmosphere. Cells were then incubated with CyQUANT® NF reagent for 1 hour at 37° C. and fluorescence intensities of quadruplicate samples were measured with a fluorescence microplate reader using excitation at 485 nm and fluorescence detection at 530 nm. In graph values are calculated as % of proliferating cells compared to controls (untreated cells) at 24, 48 and 72 hours. B) ERK1/2 phosphorylation and phospho-RB was evaluated at 24 hr after stimulation with Pep #3 (10-25-50 and 100 ng/ml), VEGF165 (25 ng/ml) and Pep RND (100 ng/ml). Anti-ERK1/2 and anti-GAPDH antibodies were used as loading control
As a marker of cell proliferation, the RB phosphorylation status was also checked in the same experimental conditions. RB protein, in fact, is able to regulate proliferation by controlling cell cycle progression through the restriction point within the G1 and S phases.

blood vessel development = assay: Directed In Vivo Angiogenesis Angioreactor (DIVAA); parameters: species or system CD1 mice; settings: mice, 21 days
Description: Female CD1 mice (20-25 g) were supplied by Charles-River (Italy) and kept in temperature- and humidity-controlled rooms (22° C., 50%) with lights on from 07:00 to 19:00 h, water and food available ad libitum. All procedures were carried out in accordance with the Italian law (Legislative Decree no. 116, 27 Jan. 1992), which acknowledges the European Directive 86/609/EEC, and were fully compliant with GlaxoSmithKline policy on the care and use of laboratory animal and codes of practice. Furthermore, all efforts were made to minimize the number of animals used and their suffering.
Sterile silicone cylinders closed at one end, called angioreactors (Cultrex, Trevigen, Inc. Helgerman Conn., Gaithersburg), were filled with 20 μL of basement membrane extract (BME) premixed with or without angiogenesis factors (VEGF, FGF) to obtain positive and negative controls respectively. […]
Vessel formation evaluation was performed after 21 days. […] Subsequently, cells were incubated with FITC-Lectin reagent (available in the kit) and then observed by fluorescence microscope (ZEISS, German).
Pro-angiogenic peptide #3 activity was also assayed in an in vivo test using DIVAA (Directed in Vivo Angiogenesis Angioreactor). DIVAA test is performed by implanting angioreactors into the dorsal flank of mice; this allows a quantitative assessment of blood vessel development. […]

How did the “effect of VEGF on caspase-3 activity (rescue) when peptide is added” value (HUVEC cells [1]) turn out when “KQCLWIRSGDRPWYCTS (disulfide 3-15 (inferred)) [Peptide #4]” was run?
Its value is “partially abolished”.

What about the “angiogenic biological activity (pro- or anti-)” value (“angiogenic biological activity” for short) (VEGF receptors) of the same sequence?
The value was “antiangiogenic activity”.

What about the “ERK 1/2 activation of VEGF stimulated HUVE cells” value (ERK1/2; 100 ng/mL, 30 min, VEGF 25 ng/ml) of the same sequence?
The value was “dramatically reduces”.

What about the “biological effect (ERK1/2 activation) on untreated HUVE cells” value (ERK1/2; 100 ng/mL, 30 min, no VEGF) of the same sequence?
The value was “does not show any biological effect”.

How did the “effect of VEGF on caspase-3 activity (rescue) when peptide is added” value (HUVEC cells [1]) turn out when “KQCMWIKPHQGQWTCTS (disulfide 3-15 (inferred)) [compound 2]” was run?
Its value is “partially abolished”.

And the “angiogenic biological activity” value (VEGF receptors)?
Its value is “antiangiogenic activity”.

For “KQIMWIKPHQGQWIYTS (prepared by chemical synthesis) [compound 1]”, which “angiogenic biological activity” value (VEGF receptors) is on record?
The value was “antiangiogenic activity”.

“KQLLWIRSGDRPWYYTS (prepared by chemical synthesis) [Peptide #3]” was tested. Which “caspase-3 activity (rescue from apoptosis)” value (HUVEC cells [1]; 8 hour, without added VEGF, peptide #3 25 ng/ml and 100 ng/ml, vs untreated and Pep-RND-treated cells) did it give?
Its value is “significantly decreased”.

And the “cell proliferation at 25 and 50 ng/ml” value (HUVEC cells [2]; 25 and 50 ng/ml, 48 and 72 hours)?
The value was “Considerable effects”.

And the cell proliferation (HUVEC cells [2]; serum deprivation, 24, 48 and 72 hours, pep #3 10-25-50-100 ng/ml, Pep RND 100 ng/ml)?
Its cell proliferation is “able to induce, in a dose dependent manner, cell proliferation”.

What about the “AKT activation (phospho AKT)” value (AKT) of the same sequence?
The value was “displayed ERK1/2 and AKT activation”.

And the RB phosphorylation (RB protein)?
The RB phosphorylation was “enhanced RB phosphorylation”.

And the “induction of new vessel formation with respect to negative controls” value (blood vessel development; 100 ng/ml, FITC-lectin positive cells)?
The value was 3.8 fold.

What about the “blood vessels development / new vessel formation in angioreactors” value (blood vessel development; subcutaneous angioreactors, peptide #3 100 ng/ml) of the same sequence?
Its value is “Blood vessels development was observed; also recorded: new vessel formation was observed”.

What about the “angiogenic biological activity” value (VEGF receptors) of the same sequence?
Its value is “proangiogenic biological activity”.

What about the “ERK1/2 activation after 24 hours of treatment” value (ERK1/2; HUVEC, 24 hours, Pep #3 10-100 ng/ml, VEGF165 25 ng/ml) of the same sequence?
The value was “confirmed ERK1/2 activation”.

And the “ERK1/2 activation (phospho ERK1/2)” value (ERK1/2; HUVEC, serum deprivation, 15 and 30 min, peptide #3 25-100 ng/ml, Pep-RND 100 ng/ml)?
Its value is “displayed ERK1/2 and AKT activation”.
